The text below walks through data of patent US20160074380A1, “Treatment Of Neurodegenerative Diseases With Combination Of Laquinimod And Fingolimod” (TEVA PHARMACEUTICAL INDUSTRIES LTD., priority 2014, published 2016).

The subject of one data set is microglia/macrophages. Put plainly: Microglial activation in EAE-afflicted mice. In kind it is in vivo. The following applies: spinal cord of EAE-afflicted mice. From the text: Laquinimod inhibited microglial activation in EAE in mice. Transcripts encoding markers of activation of microglia/macrophages were increased in the spinal cord of EAE-afflicted mice and decreased in laquinimod-treated animals, as presented in FIG. 15.

For the next data set, the system named is established EAE. Put plainly: Established EAE. In kind it is in vivo.
In the next data set the test system is lymphocyte counts. Put plainly: Lymphocyte counts over time with laquinimod versus placebo. The data set is classed as in vivo. The following applies: laquinimod 0.6 mg group vs placebo or baseline, all visits.
The subject of data set [1] is cuprizone model. Put plainly: Demyelination and re-myelination in the cuprizone model. In kind it is in vivo.
Data set [2] deals with reactive astrocytes. Put plainly: NO release in conditioned media from reactive astrocytes (ELISA). In kind it is cell-based, mice. The following applies: LPS+IFNγ. The procedure:
(§1) Mice mixed glial cells were cultured as described by McCarthy et al., 1980. Primary mice glial cells were prepared from the cortical of newborn Swiss mice (1 day). Briefly, meninges and blood vessels of the mice cortex were removed and placed in ice-cold medium of L15 containing 2% of PS and 1% of BSA. Tissues were dissociated with 0.25% trypsin-EDTA at 37° C. for 10 min. Cells were then submitted to a supplementary incubation of 15 min at 37° C. in presence of deoxyribonuclease I (final concentration of 0.5 mg/mL). Cells were then pelleted (5 min at 1200 rpm) and trypsinization was stopped by adding DMEM supplemented with 10% FCS, 1 mM of Na/pyruvate (PanBiotech, ref: P04-43100, batch: 3470914) and 2% PS. Cells suspension was mechanically dissociated and filtered through 40 μm diameter nylon meshes (BD Falcon, Ref: 352340). The cells were collected by centrifugation at 1200 rpm/min for 10 min, re-suspended in culture medium and then plated in culture flasks (Dutscher, ref: 690175). Cells were seeded at a density of 1.25×10^5 cells/cm2 and cultured in 5% CO2 at 37° C. Medium was changed three times per week.
(§2) Purification of astrocytes cells was done as described by Kim et al., 2006. After 14 days, the flasks were shaken on a rotary shaker at 200 rpm for 3 h. The resulting cell suspension rich in microglia was removed. Cells remaining in the flasks from which microglia had been harvested correspond to astrocytes at a purity of about 90%. Astrocytes were cultured in DMEM supplemented with 10% FCS, 1 mM of Na/pyruvate and 2% at 5% CO2 and 37° C. in flasks of 25 cm2.
(§3) When reaching confluence, primary astroglial cells were first incubated for 2 hours with Fingolimod (1 nM, 10 nM) or Laquinimod (1 nM, 10 nM, 100 nM, 1 μM, 10 μM) alone or in co-incubation or control medium.
(§4) At the end of 2 hours treatment with test compounds, astrocyte culture was activated with serum-free DMEM containing LPS (100 ng/mL; Sigma, Serotype 026:B6, ref: L2654; batch: 123M4052V) and IFNγ (10 ng/mL; Peprotech; ref: 315-05; batch: 061398 L0513) for 6 hours (Kim and Lee, 2013; Shu et al., 2014; Gresa-Arribas et al., 2012) in absence or presence of test compounds.
(§5) To obtain LPS/INFγ free conditioned media (CM), after 6 hours, cells were washed twice with DMEM and medium was replaced with DMEM supplemented with B27 (2%), L-glutamine (2 mM), PS solution (2%). LCM was collected 24 hrs after. For control, cells were incubated with medium not containing LPS/INFγ. […]
Background: ELISA stands for enzyme-linked immunosorbent assay.

The test system of another data set is human microglia. Put plainly: Human microglia activation in culture (LPS). The data set is classed as cell-based. From the text:
(§6) In another study, laquinimod reduced microglial activation in culture. The size of CD14 stained human microglia was increased with LPS activation. Also, in FIG. 13, human (C) or mouse (D) microglia elevated TNF-α secretion upon LPS activation, which was attenuated by laquinimod.

The test system of another data set is human astrocytes. Put plainly: Human astrocyte activation and cytokine secretion in vitro. The data set is classed as cell-based. An excerpt:
The effect of laquinimod on human astrocyte activation, as investigated in another study, is detailed in FIGS. 9 and 10. […] In unstimulated cells, the NF-κB dimers are sequestered in the cytoplasm by a family of inhibitors, called IκBs (Inhibitor of κB). […] Activation of the NF-κB is initiated by the signal-induced degradation of IκB proteins. This occurs primarily via activation of a kinase called the IκB kinase (IKK). When activated by signals, usually coming from the outside of the cell, the IκB kinase phosphorylates two serine residues located in an IκB regulatory domain. When phosphorylated, the IκB inhibitor molecules are modified by a process called ubiquitination, which than leads them to be degraded by a cell structure called the proteasome. With the degradation of IκB, the NF-κB complex is then freed to enter the nucleus where it can ‘turn on’ the expression of specific genes that have DNA-binding sites for NF-κB nearby. The activation of these genes by NF-κB then leads to the given physiological response, for example, an inflammatory or immune response.

The test system of data set [3] is H2TT (primary neuronal culture) cells. Put plainly: Oxidative glutamate toxicity of H2TT cells. In kind it is cell-based. The following applies: prolonged incubation.
Data set [4] relates to reactive astrocytes. Put plainly: IL-12p70 concentration in conditioned media from reactive astrocytes (cytometry). The data set is classed as cell-based, mice. The following applies: LPS+IFNγ. On the procedure: as §1, §2, §3, §4, §5
Data set [5] has as its system oligodendrocytes. Put plainly: Oligodendrocyte survival under inflammatory insults. In kind it is cell-based.
In data set [6] the test system is lysolecithin model. Put plainly: Lysolecithin-induced demyelination model. The data set is classed as in vivo.
The test system of another data set is mouse microglia. Put plainly: Mouse microglia TNF-α secretion upon LPS activation. In kind it is cell-based.
Excerpt: as §6

Data set [7] has as its system oligodendrocytes. The following applies: inflammatory insults; Rochelle, 2007; cited from earlier work.
In data set [8] the test system is lysolecithin model. The following applies: Hu, 2011; cited from earlier work.
Data set [9] relates to peripheral lymphocyte counts. Put plainly: Peripheral lymphocyte counts with fingolimod. The data set is classed as in vivo. The following applies: S1P receptor-mediated.
The subject of data set [10] is mouse-cultured cortical cells. The following applies: pretreatment; Di Menna, 2013; cited from earlier work.
Data set [11] concerns cuprizone model. The following applies: Slovic, 2012, Kim, 2011; cited from earlier work.
[12] abbreviates: Mus musculus, Astrocyte, 1 nM, read-out: % inhibition of IL-12p70 release.
The mark [13] stands for this setting: Mus musculus, Astrocyte, 10 nM, read-out: % inhibition of IL-12p70 release.

Structures are written as SMILES. Several values for one entry are separate records, joined by “and”; a condition that tells them apart may be missing. Equal values may be shown once. Read-outs that look alike come from different tables or passages of the source.

One may read the inhibition as the drop in the measured response relative to a control, in per cent.

With `CCN(C(=O)c1c(O)c2c(Cl)cccc2n(C)c1=O)c1ccccc1` [Laquinimod], in the data set with microglia/macrophages, the “transcripts encoding markers of activation of microglia/macrophages” value was “decreased”. Further, the clinical disease entry with established EAE is “ameliorates clinical disease”. Moreover, the “expansion of pre-existing lesions” value in the data set with established EAE is “inhibits further expansion of pre-existing lesions”. For the same compound, the lymphocyte counts entry with lymphocyte counts is given as “remained stable”. Further, the re-myelination entry with cuprizone model [1] (after cuprizone withdrawal) was “no effect”. Also, the demyelination result in the data set on cuprizone model [1] (cuprizone model (non-T cell model of demyelination)) is listed as “significantly less demyelination”. Also, the NO content in the data set on reactive astrocytes [2] (1 nM) is 26.44 pg/mL and 26.447 pg/mL; in the data set on reactive astrocytes [2] (10 nM), 21.1 pg/mL and 21.093 pg/mL; in the data set on reactive astrocytes [2] (100 nM), 17.98 pg/mL and 17.983 pg/mL; with reactive astrocytes [2] (1 μM), 16.11 pg/mL and 16.111 pg/mL. For the same compound, the inhibition at 0.001 µM turned out to be 39% in the data set with reactive astrocytes [2] (Mus musculus, Astrocyte, 1 nM) and 34.3% with reactive astrocytes [4] (setting [12]). The inhibition at 0.01 µM in the data set with reactive astrocytes [2] (Mus musculus, Astrocyte, 10 nM) amounted to 51.3%; with reactive astrocytes [4] (setting [13]), 36.7%. The inhibition at 0.1 µM is 58.5% in the data set with reactive astrocytes [2] (Mus musculus, Astrocyte, 100 nM) and 61.4% in the data set with reactive astrocytes [4] (Mus musculus, Astrocyte, 100 nM, read-out: % inhibition of IL-12p70 release). Besides, the inhibition at 1 µM with reactive astrocytes [2] (Mus musculus, Astrocyte, 1 μM) amounted to 62.8%; in the data set on reactive astrocytes [4] (Mus musculus, Astrocyte, 1 μM, read-out: % inhibition of IL-12p70 release), 74.3%. In the data set with human microglia (LPS activation), the “size of CD14 stained human microglia” value is “reduced”. Besides, the “microglial production of pro-inflammatory cytokine” value in the data set on human microglia (human microglia) is given as “inhibited”. Moreover, the TNF-α secretion entry in the data set on human microglia (human microglia, LPS activation) was “attenuated”; in the data set on mouse microglia, “attenuated”. Also, the pro-inflammatory cytokine secretion result in the data set with human astrocytes (human astrocytes in vitro) is reported as “down regulates”. For the same compound, the astrocyte activation entry in the data set on human astrocytes (via the NF-κB pathway) was “interferes with astrocyte activation”. Also, in data set [3], the oxidative glutamate toxicity entry was “protects against oxidative glutamate toxicity”. Moreover, the IL-12p70 content in the data set with reactive astrocytes [4] (1 nM) is on record as 6.53 pg/mL; in the data set on reactive astrocytes [4] (10 nM) it was 6.29 pg/mL; with reactive astrocytes [4] (100 nM) it was 3.84 pg/mL; in the data set on reactive astrocytes [4] (1 μM) it was 2.55 pg/mL. Besides, the oligodendrocyte survival result in the data set on oligodendrocytes [5] is “does not protect oligodendrocytes”. The lysolecithin-induced demyelination entry in the data set with lysolecithin model [6] is reported as “no effect”.

`CCCCCCCCc1ccc(CCC(N)(CO)CO)cc1` [Fingolimod]: the NO content in the data set with reactive astrocytes [2] (1 nM) was 24.39 pg/mL and 24.396 pg/mL; with reactive astrocytes [2] (10 nM), 17.37 pg/mL and 17.371 pg/mL. For the same compound, the inhibition at 0.001 µM in the data set with reactive astrocytes [2] (Mus musculus, Astrocyte, 1 nM) is 43.7%; in the data set on reactive astrocytes [4] (setting [12]), 38.1%. The inhibition at 0.01 µM with reactive astrocytes [2] (Mus musculus, Astrocyte, 10 nM) worked out at 59.9%; in the data set with reactive astrocytes [4] (setting [13]) it was 57.2%. The oligodendrocyte survival entry with oligodendrocytes [7] is listed as “did protect oligodendrocytes”. Moreover, the re-myelination entry in the data set with lysolecithin model [8] was “lack of any effect”; with cuprizone model [11], “not conclusive”. The figures for the IL-12p70 content in the data set on reactive astrocytes [4] (1 nM) and with reactive astrocytes [4] (10 nM) were 6.15 pg/mL and 4.25 pg/mL, respectively. The lymphocyte count reduction entry in [9] was “dose dependent”. Moreover, the “protection of neurons against NMDA toxicity” value in data set [10] was “protected neurons against NMDA toxicity”.
